According to patent publication US5422344A, “Method of treating retroviral infections in mammals” (The United States of America as represented by the …, priority 1990, dated 1995):
Where two headings read alike, the source gives them in different places.

Columns and labels:
[1] = tested on: lentivirus-associated topoisomerase; test: Inhibition of lentivirus-associated topoisomerase activity; assay type: biochemical, HIV and EIAV
[2] = tested on: HIV-IIIB (HIV-1) replication in H9 cells; test: HIV replication (RT activity) in acute infection of H9 cells; assay type: cell-based; conditions: for RT activity: 7 days postinfection; for RT/Cell: 1 h treatment
Method: HIV-Acute Infection of H9 Cells by HIV and Drug Treatment: One ml of culture supernatant of H9/HIV-IIIB cells (10^6 /ml) was used after centrifugation (200xg, 20 min) and filtration (0.45 μm) for infecting 10^5 H9 cells in the presence or absence of different levels of CPT, m-AMSA or VP-16. Control cells received equivalent volumes of DMSO. The cells were incubated for 1 h at 37° C., pelleted, washed and resuspended in fresh media. […] (1981) J. Virol. 38: 239-48.
CPT Inhibition of HIV Replication Following Acute Infection of H9 Cells with HIV-IIIB. In order to determine appropriate concentrations of CPT which would permit cell viability and growth while inhibiting viral infection or replication, H9 cells were infected with HIV-IIIB as described above in the absence or presence of different CPT doses. The cells were incubated for 1 h at 37° C., pelleted, washed and resuspended in fresh media. Reverse transcriptase (RT) activity in the culture media was measured seven days after infection.
Since CPT is an anticancer drug and a known topo I inhibitor, its effects on HIV replication were compared to those of other anticancer drugs which are known to inhibit the related topoisomerase II enzyme.

[3] = tested on: HIV; test: Virus production in chronically HIV-infected cells; assay type: cell-based; conditions: non-cytotoxic doses; preliminary evidence
[4] = tested on: mammalian cells; conditions: cytotoxic doses, Wall et al., cited from earlier work
[5] = tested on: experimental tumors and human colon cancer; conditions: cited from earlier work
[6] = tested on: equine infectious anemia virus (EIAV); test: EIAV replication / infection in cells; assay type: cell-based
[7] = tested on: Simian Virus 40 DNA replication; conditions: Snapka 1986; cited from earlier work
[8] = tested on: eukaryotic topo I; conditions: Gupta et al. 1988; cited from earlier work
[9] = tested on: HIV p24 antigen; test: Western blot analysis of HIV p24 antigen after HIV infection and CPT treatment; assay type: cell-based, HIV-1; conditions: 7 days post-infection
Method: A. H9 cells were infected as described in Table 1 and the text. Virus was pelleted from culture supernatants 7 days after infection. The viral pellets were resuspended, lysed, and the proteins separated and transferred as described in the Examples. The blot was analyzed using an HIV p24 specific monoclonal antibody (S. Showalter and M. Zweig, unpublished), and visualized using the Bio-Rad immunogold kit. Lane 1: virus from untreated infected cells; lane 2: virus from cells treated with 0.005 μM CPT for the first 18 h after infection.
B. Extracts of HIV-infected cells (7 days post-infection) were prepared and analyzed as described in the Examples using an HIV p24 specific monoclonal antibody (S. Showalter and M. Zweig, unpublished). Blots were visualized using the Bio-Rad immunogold kit. Lane 1: untreated infected cells; lane 2: 0.2 μM CPT; lane 3: 0.1 μM CPT; lane 4: 0.05 μM CPT; lane 5: 0.02 μM CPT; lane 6: 0.01 μM CPT; lane 7: 0.005 μM CPT. […]
The culture media from cells subjected to different treatments was prepared by centrifugation (200xg, 10 min) to remove whole cells and debris, the viral particles were subsequently pelleted (35,000 rpm, 11/2h), and the viral pellet was resuspended in 100 μl of RIPA buffer (50 mM Tris-HC1, pH 7.5; 0.5M NaHPO4, 0.5% NP40, 0.25% Na-deoxycholate, 0.1% SDS). […] Protein concentration was determined using the Bio-Rad protein assay. […]

For `CC[C@@]1(O)C(=O)OCc2c1cc1n(c2=O)Cc2cc3ccccc3nc2-1` [CPT, Camptothecin], the lentivirus-associated topoisomerase activity [1] was “inhibited this activity”, the RT activity ([2]; 0.005 μM CPT, 1 h) was 429 ± 116 cpm/cell 10^5 and the RT/Cell ([2]; 0.005 μM CPT, day 7 after infection) was 5400 cpm/10^5 Cell. For the same compound, the RT/Cell ([2]; 0.005 μM CPT, day 8 after infection) was 34268 cpm/10^5 Cell, the RT/Cell ([2]; 0.005 μM CPT, day 9 after infection) was 102450 cpm/10^5 Cell and the RT activity ([2]; 0.01 μM CPT, 1 h) was 528 ± 40 cpm/cell 10^5. It also gave an RT/Cell ([2]; 0.01 μM CPT, day 7 after infection) of 5085 cpm/10^5 Cell, an RT/Cell ([2]; 0.01 μM CPT, day 8 after infection) of 33968 cpm/10^5 Cell and an RT/Cell ([2]; 0.01 μM CPT, day 9 after infection) of 112870 cpm/10^5 Cell. The RT activity ([2]; 0.02 μM CPT, 1 h) was 400 ± 103 cpm/cell 10^5, the RT/Cell ([2]; 0.02 μM CPT, day 7 after infection) was 29.7 cpm/10^5 Cell and the RT/Cell ([2]; 0.02 μM CPT, day 8 after infection) was 325 cpm/10^5 Cell. The RT/Cell ([2]; 0.02 μM CPT, day 9 after infection) was 65761 cpm/10^5 Cell, the “inhibition of HIV production” value ([2]; 0.05 μM CPT, 8 and 9 days after infection) was “essentially complete inhibition of HIV production” and the RT activity ([2]; 0.05 μM CPT, 1 h) was 235 ± 62 cpm/cell 10^5. The RT/Cell ([2]; 0.05 μM CPT, day 7 after infection) was 0.03 cpm/10^5 Cell, the RT/Cell ([2]; 0.05 μM CPT, day 8 after infection) was 1.5 cpm/10^5 Cell and the RT/Cell ([2]; 0.05 μM CPT, day 9 after infection) was 9.4 cpm/10^5 Cell. The RT activity ([2]; 0.1 μM CPT, 1 h) was 106 ± 30 cpm/cell 10^5, the RT activity ([2]; 0.2 μM CPT, 1 h) was 139 ± 96 cpm/cell 10^5 and the “inhibitory effect on HIV replication” value ([2]; 0.005-0.02 μM CPT, 1 h, 7 days after infection) was 89-93%. The “effect of 1 hour exposure during viral infection on HIV replication” value ([2]; 1 hour exposure) was “sufficient to prevent HIV replication”, the inhibition at 0.005 µM ([2]; Human immunodeficiency virus 1, IIIB, H9, read-out: RT % Inhibition, 0.005 μM CPT, 1 h treatment, day 7 after infection) was 84% and the inhibition at 0.005 µM ([2]; Human immunodeficiency virus 1, IIIB, H9, read-out: RT % Inhibition, 0.005 μM CPT, 1 h treatment, day 8 after infection) was 74%. It also gave an inhibition at 0.005 µM ([2]; Human immunodeficiency virus 1, IIIB, H9, read-out: RT % Inhibition, 0.005 μM CPT, 1 h treatment, day 9 after infection) of 24%, an inhibition at 0.01 µM ([2]; Human immunodeficiency virus 1, IIIB, H9, read-out: RT % Inhibition, 0.01 μM CPT, 1 h treatment, day 7 after infection) of 85% and an inhibition at 0.01 µM ([2]; Human immunodeficiency virus 1, IIIB, H9, read-out: RT % Inhibition, 0.01 μM CPT, 1 h treatment, day 8 after infection) of 75%. It also gave an inhibition at 0.01 µM ([2]; Human immunodeficiency virus 1, IIIB, H9, read-out: RT % Inhibition, 0.01 μM CPT, 1 h treatment, day 9 after infection) of 17%, an inhibition at 0.02 µM ([2]; Human immunodeficiency virus 1, IIIB, H9, read-out: RT % Inhibition, 0.02 μM CPT, 1 h treatment, day 7 after infection) of 100% and an inhibition at 0.02 µM ([2]; Human immunodeficiency virus 1, IIIB, H9, read-out: RT % Inhibition, 0.02 μM CPT, 1 h treatment, day 8 after infection) of 98.8%. It also gave an inhibition at 0.02 µM ([2]; Human immunodeficiency virus 1, IIIB, H9, read-out: RT % Inhibition, 0.02 μM CPT, 1 h treatment, day 9 after infection) of 52%, an inhibition at 0.05 µM ([2]; Human immunodeficiency virus 1, IIIB, H9, read-out: RT % Inhibition, 0.05 μM CPT, 1 h treatment, day 7 after infection) of 100% and an inhibition at 0.05 µM ([2]; Human immunodeficiency virus 1, IIIB, H9, read-out: RT % Inhibition, 0.05 μM CPT, 1 h treatment, day 8 after infection) of 100%. For the same compound, the inhibition at 0.05 µM ([2]; Human immunodeficiency virus 1, IIIB, H9, read-out: RT % Inhibition, 0.05 μM CPT, 1 h treatment, day 9 after infection) was 100%, the inhibition at 0.005 µM ([2]; Human immunodeficiency virus 1, IIIB, H9, read-out: RT activity % Inhibition, 0.005 μM CPT, 1 h, 7 days postinfection) was 89 ± 4% and the inhibition at 0.01 µM ([2]; Human immunodeficiency virus 1, IIIB, H9, read-out: RT activity % Inhibition, 0.01 μM CPT, 1 h, 7 days postinfection) was 89 ± 4%. For the same compound, the inhibition at 0.02 µM ([2]; Human immunodeficiency virus 1, IIIB, H9, read-out: RT activity % Inhibition, 0.02 μM CPT, 1 h, 7 days postinfection) was 93 ± 2%, the inhibition at 0.05 µM ([2]; Human immunodeficiency virus 1, IIIB, H9, read-out: RT activity % Inhibition, 0.05 μM CPT, 1 h, 7 days postinfection) was 96 ± 1.5% and the inhibition at 0.1 µM ([2]; Human immunodeficiency virus 1, IIIB, H9, read-out: RT activity % Inhibition, 0.1 μM CPT, 1 h, 7 days postinfection) was 98 ± 0.2%. For the same compound, the inhibition at 0.2 µM ([2]; Human immunodeficiency virus 1, IIIB, H9, read-out: RT activity % Inhibition, 0.2 μM CPT, 1 h, 7 days postinfection) was 98 ± 0.8%, the “inhibiting the initiation of infection by HIV” value ([2]; cell culture) was “has been demonstrated” and the “prevention of HIV replication (RT activity)” value ([2]; one-hour treatment, 7 days after infection) was 94-100%. The “virus production in chronically HIV-infected cells” value [3] was “virus production is suppressed”, the “fragmentation of DNA” value ([4]; mammalian cells) was “causes rapid and reversible fragmentation of DNA in mammalian cells” and the “RNA and DNA synthesis” value [4] was “inhibits RNA and DNA synthesis”. The antitumor activity [5] was “strong antitumor activity”, the “inhibiting the initiation of infection by EIAV” value ([6]; cell culture) was “has been demonstrated” and the EIAV replication ([6]; chronically-infected cells) was “inhibits equine infectious anemia virus (EIAV) replication in chronically-infected cells”. For the same compound, the “Simian Virus 40 DNA replication” value [7] was “selectively interferes with Simian Virus 40 DNA replication”, the “inhibition of eukaryotic topo I” value [8] was “known specific inhibitor of eukaryotic topo I” and the “p24 in culture media” value ([9]; 0.005 μM CPT for first 18 h (FIG. 1A)) was “could not be detected in the culture media”. For the same compound, the “p24 in cell extracts” value ([9]; 0.005-0.2 μM CPT, 1 h (FIG. 1B)) was “could not be detected in extracts”.
